Where “and” joins values, the source holds several entries; their conditions need not be identical. Equal values may be shown once. Inconclusive results and toxic doses are left out.
Tested on: L1210 leukemia ip in BDF1 mice, survival T/C
Test: NCI In Vivo Anticancer Drug Screen. Data for tumor model L1210 Leukemia (intraperitoneal) in B6D2F1 (BDF1) mice
Settings: higher = longer survival
In short: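 Transplanted-tumor mice were given test agent; controls received vehicle only. Survival readings from the two groups were divided (treated over control).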

NC(C/[N+]([O-])=N/O)C(=O)O (stereo not given)
T/C (endpoint: mean survival time, dose: 6.25 mg/kg/injection, schedule: Q01DX009 (ip), vehicle: saline): 117 % of control and 118 % of control | T/C (endpoint: mean survival time, dose: 8.0 mg/kg/injection, schedule: Q03HX016 (ip), vehicle: saline): 111 % of control | T/C (endpoint: mean survival time, dose: 8.0 mg/kg/injection, schedule: Q03HX024 (ip), vehicle: saline): 113 % of control | T/C (endpoint: mean survival time, dose: 12.5 mg/kg/injection, schedule: Q01DX009 (ip), vehicle: saline): 117 % of control and 122 % of control and 123 % of control | T/C (endpoint: mean survival time, dose: 16.0 mg/kg/injection, schedule: Q03HX008 (ip), vehicle: saline): 111 % of control | T/C (endpoint: mean survival time, dose: 16.0 mg/kg/injection, schedule: Q03HX016 (ip), vehicle: saline): 116 % of control | T/C (endpoint: mean survival time, dose: 16.0 mg/kg/injection, schedule: Q03HX024 (ip), vehicle: saline): 118 % of control | T/C (endpoint: mean survival time, dose: 20.0 mg/kg/injection, schedule: Q01DX009 (ip), vehicle: saline): 118 % of control | T/C (endpoint: mean survival time, dose: 25.0 mg/kg/injection, schedule: Q01DX001 (ip), vehicle: carboxymethylcellulose (CMC)): 112 % of control | T/C (endpoint: mean survival time, dose: 25.0 mg/kg/injection, schedule: Q01DX009 (ip), vehicle: saline): 120 % of control and 123 % of control | T/C (endpoint: mean survival time, dose: 30.0 mg/kg/injection, schedule: Q01DX009 (ip), vehicle: saline with Tween-80): 111 % of control | T/C (endpoint: mean survival time, dose: 32.0 mg/kg/injection, schedule: Q01DX009 (ip), vehicle: saline): 116 % of control | T/C (endpoint: mean survival time, dose: 32.0 mg/kg/injection, schedule: Q01DX009 (sc), vehicle: saline): 117 % of control | T/C (endpoint: mean survival time, dose: 32.0 mg/kg/injection, schedule: Q03HX008 (ip), vehicle: saline): 116 % of control | T/C (endpoint: mean survival time, dose: 32.0 mg/kg/injection, schedule: Q03HX024 (ip), vehicle: saline): 121 % of control | T/C (endpoint: mean survival time, dose: 40.0 mg/kg/injection, schedule: Q01DX009 (ip), vehicle: saline): 121 % of control | T/C (endpoint: mean survival time, dose: 44.0 mg/kg/injection, schedule: Q01DX009 (ip), vehicle: saline with Tween-80): 108 % of control | T/C (endpoint: mean survival time, dose: 50.0 mg/kg/injection, schedule: Q01DX001 (ip), vehicle: carboxymethylcellulose (CMC)): 106 % of control | T/C (endpoint: mean survival time, dose: 54.0 mg/kg/injection, schedule: Q04DX003 (ip), vehicle: saline with Tween-80): 110 % of control | T/C (endpoint: mean survival time, dose: 64.0 mg/kg/injection, schedule: Q01DX001 (oral), vehicle: saline): 107 % of control | T/C (endpoint: mean survival time, dose: 64.0 mg/kg/injection, schedule: Q01DX009 (ip), vehicle: saline): 123 % of control | T/C (endpoint: mean survival time, dose: 64.0 mg/kg/injection, schedule: Q01DX009 (oral), vehicle: saline): 92 % of control | T/C (endpoint: mean survival time, dose: 64.0 mg/kg/injection, schedule: Q01DX009 (sc), vehicle: saline): 118 % of control | T/C (endpoint: mean survival time, dose: 64.0 mg/kg/injection, schedule: Q03HX008 (ip), vehicle: saline): 116 % of control | T/C (endpoint: mean survival time, dose: 64.0 mg/kg/injection, schedule: Q03HX024 (ip), vehicle: saline): 122 % of control | T/C (endpoint: mean survival time, dose: 64.0 mg/kg/injection, schedule: Q04DX003 (ip), vehicle: saline): 117 % of control | T/C (endpoint: mean survival time, dose: 64.0 mg/kg/injection, schedule: Q08DX002 (ip), vehicle: saline): 117 % of control | T/C (endpoint: mean survival time, dose: 67.0 mg/kg/injection, schedule: Q01DX009 (ip), vehicle: saline with Tween-80): 104 % of control | T/C (endpoint: mean survival time, dose: 100.0 mg/kg/injection, schedule: Q01DX001 (ip), vehicle: carboxymethylcellulose (CMC)): 110 % of control | T/C (endpoint: mean survival time, dose: 100.0 mg/kg/injection, schedule: Q04DX003 (ip), vehicle: saline with Tween-80): 123 % of control | T/C (endpoint: mean survival time, dose: 128.0 mg/kg/injection, schedule: Q01DX001 (ip), vehicle: saline): 118 % of control | T/C (endpoint: mean survival time, dose: 128.0 mg/kg/injection, schedule: Q01DX001 (oral), vehicle: saline): 103 % of control | T/C (endpoint: mean survival time, dose: 128.0 mg/kg/injection, schedule: Q01DX001 (sc), vehicle: saline): 104 % of control | T/C (endpoint: mean survival time, dose: 128.0 mg/kg/injection, schedule: Q01DX009 (ip), vehicle: saline): 108 % of control | T/C (endpoint: mean survival time, dose: 128.0 mg/kg/injection, schedule: Q01DX009 (sc), vehicle: saline): 102 % of control | T/C (endpoint: mean survival time, dose: 128.0 mg/kg/injection, schedule: Q03HX008 (ip), vehicle: saline): 119 % of control | T/C (endpoint: mean survival time, dose: 128.0 mg/kg/injection, schedule: Q03HX016 (ip), vehicle: saline): 122 % of control | T/C (endpoint: mean survival time, dose: 128.0 mg/kg/injection, schedule: Q04DX003 (ip), vehicle: saline): 114 % of control | T/C (endpoint: mean survival time, dose: 128.0 mg/kg/injection, schedule: Q08DX002 (ip), vehicle: saline): 112 % of control | T/C (endpoint: mean survival time, dose: 150.0 mg/kg/injection, schedule: Q01DX009 (ip), vehicle: saline with Tween-80): 92 % of control | T/C (endpoint: mean survival time, dose: 160.0 mg/kg/injection, schedule: Q01DX009 (ip), vehicle: saline): 116 % of control | T/C (endpoint: mean survival time, dose: 187.0 mg/kg/injection, schedule: Q04DX003 (ip), vehicle: saline with Tween-80): 156 % of control | T/C (endpoint: mean survival time, dose: 200.0 mg/kg/injection, schedule: Q01DX001 (ip), vehicle: carboxymethylcellulose (CMC)): 124 % of control | T/C (endpoint: mean survival time, dose: 200.0 mg/kg/injection, schedule: Q01DX003 (ip), vehicle: sodium bicarbonate): 164 % of control | T/C (endpoint: mean survival time, dose: 200.0 mg/kg/injection, schedule: Q01DX009 (ip), vehicle: saline): 102 % of control | T/C (endpoint: mean survival time, dose: 256.0 mg/kg/injection, schedule: Q01DX001 (ip), vehicle: saline): 117 % of control | T/C (endpoint: mean survival time, dose: 256.0 mg/kg/injection, schedule: Q01DX001 (oral), vehicle: saline): 103 % of control | T/C (endpoint: mean survival time, dose: 256.0 mg/kg/injection, schedule: Q01DX001 (sc), vehicle: saline): 108 % of control | T/C (endpoint: mean survival time, dose: 256.0 mg/kg/injection, schedule: Q01DX009 (ip), vehicle: saline): 95 % of control | T/C (endpoint: mean survival time, dose: 256.0 mg/kg/injection, schedule: Q08DX002 (ip), vehicle: saline): 121 % of control | T/C (endpoint: mean survival time, dose: 266.0 mg/kg/injection, schedule: Q04DX003 (ip), vehicle: saline with Tween-80): 115 % of control | T/C (endpoint: mean survival time, dose: 400.0 mg/kg/injection, schedule: Q01DX003 (ip), vehicle: sodium bicarbonate): 172 % of control | T/C (endpoint: mean survival time, dose: 400.0 mg/kg/injection, schedule: Q04DX003 (ip), vehicle: Klucel (hydroxypropylcellulose) (HPC)): 151 % of control | T/C (endpoint: mean survival time, dose: 512.0 mg/kg/injection, schedule: Q01DX001 (ip), vehicle: saline): 117 % of control | T/C (endpoint: mean survival time, dose: 512.0 mg/kg/injection, schedule: Q01DX001 (oral), vehicle: saline): 97 % of control | T/C (endpoint: mean survival time, dose: 512.0 mg/kg/injection, schedule: Q01DX001 (sc), vehicle: saline): 106 % of control | T/C (endpoint: mean survival time, dose: 600.0 mg/kg/injection, schedule: Q01DX003 (ip), vehicle: sodium bicarbonate): 172 % of control | T/C (endpoint: mean survival time, dose: 600.0 mg/kg/injection, schedule: Q04DX003 (ip), vehicle: saline with Tween-80): 121 % of control | T/C (endpoint: mean survival time, dose: 600.0 mg/kg/injection, schedule: Q04DX003 (ip), vehicle: saline): 161 % of control and 159 % of control | T/C (endpoint: mean survival time, dose: 800.0 mg/kg/injection, schedule: Q01DX003 (ip), vehicle: sodium bicarbonate): 175 % of control | T/C (endpoint: mean survival time, dose: 800.0 mg/kg/injection, schedule: Q04DX003 (ip), vehicle: Klucel (hydroxypropylcellulose) (HPC)): 106 % of control | T/C (endpoint: mean survival time, dose: 800.0 mg/kg/injection, schedule: Q04DX003 (ip), vehicle: saline with Tween-80): 154 % of control | T/C (endpoint: mean survival time, dose: 1000.0 mg/kg/injection, schedule: Q01DX003 (ip), vehicle: sodium bicarbonate): 96 % of control | T/C (endpoint: mean survival time, dose: 1000.0 mg/kg/injection, schedule: Q04DX003 (ip), vehicle: saline with Tween-80): 92 % of control | T/C (endpoint: mean survival time, dose: 1024.0 mg/kg/injection, schedule: Q01DX001 (sc), vehicle: saline): 110 % of control | T/C (endpoint: mean survival time, dose: 1024.0 mg/kg/injection, schedule: Q04DX003 (ip), vehicle: saline): 150 % of control | T/C (endpoint: median survival time, dose: 8.0 mg/kg/injection, schedule: Q01DX009 (ip), vehicle: saline): 105 % of control | T/C (endpoint: median survival time, dose: 8.0 mg/kg/injection, schedule: Q01DX009 (oral), vehicle: saline): 100 % of control | T/C (endpoint: median survival time, dose: 8.0 mg/kg/injection, schedule: Q01DX009 (sc), vehicle: saline): 105 % of control | T/C (endpoint: median survival time, dose: 16.0 mg/kg/injection, schedule: Q01DX009 (oral), vehicle: saline): 100 % of control | T/C (endpoint: median survival time, dose: 16.0 mg/kg/injection, schedule: Q01DX009 (sc), vehicle: saline): 100 % of control and 105 % of control | T/C (endpoint: median survival time, dose: 32.0 mg/kg/injection, schedule: Q01DX009 (oral), vehicle: saline): 111 % of control | T/C (endpoint: median survival time, dose: 32.0 mg/kg/injection, schedule: Q01DX009 (sc), vehicle: saline): 111 % of control | T/C (endpoint: median survival time, dose: 64.0 mg/kg/injection, schedule: Q01DX009 (ip), vehicle: saline): 100 % of control and 111 % of control | T/C (endpoint: median survival time, dose: 64.0 mg/kg/injection, schedule: Q04DX003 (ip), vehicle: saline): 105 % of control | T/C (endpoint: median survival time, dose: 64.0 mg/kg/injection, schedule: Q04DX003 (oral), vehicle: saline): 100 % of control | T/C (endpoint: median survival time, dose: 100.0 mg/kg/injection, schedule: Q04DX003 (ip), vehicle: saline): 116 % of control and 100 % of control | T/C (endpoint: median survival time, dose: 128.0 mg/kg/injection, schedule: Q01DX009 (ip), vehicle: saline): 100 % of control | T/C (endpoint: median survival time, dose: 128.0 mg/kg/injection, schedule: Q01DX009 (sc), vehicle: saline): 105 % of control | T/C (endpoint: median survival time, dose: 128.0 mg/kg/injection, schedule: Q04DX003 (oral), vehicle: saline): 100 % of control | T/C (endpoint: median survival time, dose: 200.0 mg/kg/injection, schedule: Q04DX003 (ip), vehicle: saline): 111 % of control | T/C (endpoint: median survival time, dose: 400.0 mg/kg/injection, schedule: Q04DX003 (ip), vehicle: saline): 116 % of control | T/C (endpoint: median survival time, dose: 1000.0 mg/kg/injection, schedule: Q04DX003 (ip), vehicle: saline): 155 % of control | T/C (endpoint: median survival time, dose: 1024.0 mg/kg/injection, schedule: Q04DX003 (ip), vehicle: saline): 111 % of control | T/C (endpoint: median survival time, dose: 1024.0 mg/kg/injection, schedule: Q04DX003 (sc), vehicle: saline): 94 % of control

— PubChem BioAssay AID248 (DTP/NCI, 2004)
